Substitutions are numbered along the chain they refer to.
Legend:
Type in all cases: biochemical
CSD1 (Cu/ZnSOD1) = molecular target: T1, CSD1 (Cu/ZnSOD1) (Arabidopsis thaliana, UniProt P24704); test: NBT-formazan SOD assay (xanthine/xanthine oxidase); conditions: superoxide generated by xanthine oxidase; 570 nm
T1 sequence (P24704 1-152): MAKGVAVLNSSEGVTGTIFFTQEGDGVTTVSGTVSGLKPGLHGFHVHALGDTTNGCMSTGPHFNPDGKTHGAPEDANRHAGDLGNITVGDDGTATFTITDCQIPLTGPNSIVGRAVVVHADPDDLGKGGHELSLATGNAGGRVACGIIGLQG

FSD2 = molecular target: T2, FSD2 (Arabidopsis thaliana, UniProt Q9LU64); test: NBT-formazan SOD assay (xanthine/xanthine oxidase); conditions: superoxide generated by xanthine oxidase; 570 nm
T2 sequence (Q9LU64 1-305 limits assumed): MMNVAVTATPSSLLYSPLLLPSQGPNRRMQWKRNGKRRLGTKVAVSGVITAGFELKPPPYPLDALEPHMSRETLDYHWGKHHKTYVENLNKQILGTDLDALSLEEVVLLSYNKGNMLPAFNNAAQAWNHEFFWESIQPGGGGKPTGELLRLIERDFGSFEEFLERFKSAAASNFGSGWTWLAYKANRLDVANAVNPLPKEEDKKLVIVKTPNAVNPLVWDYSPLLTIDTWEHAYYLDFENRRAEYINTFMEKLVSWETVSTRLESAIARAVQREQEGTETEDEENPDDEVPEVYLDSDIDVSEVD

FSD1 = molecular target: T3, FSD1 (Arabidopsis thaliana, UniProt P21276); test: NBT-formazan SOD assay (xanthine/xanthine oxidase); conditions: superoxide generated by xanthine oxidase; 570 nm
T3 sequence (P21276 1-212): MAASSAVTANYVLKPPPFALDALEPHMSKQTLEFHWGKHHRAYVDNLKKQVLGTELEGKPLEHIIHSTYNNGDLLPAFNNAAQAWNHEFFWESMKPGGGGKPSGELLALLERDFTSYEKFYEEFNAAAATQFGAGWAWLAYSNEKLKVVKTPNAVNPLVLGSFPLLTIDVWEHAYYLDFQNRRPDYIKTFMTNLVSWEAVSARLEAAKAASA

CSD2 (Cu/ZnSOD2) = molecular target: T4, CSD2 (Cu/ZnSOD2) (Arabidopsis thaliana, UniProt O78310); test: NBT-formazan SOD assay (xanthine/xanthine oxidase); conditions: superoxide generated by xanthine oxidase; 570 nm
T4 sequence (O78310 1-216 limits assumed): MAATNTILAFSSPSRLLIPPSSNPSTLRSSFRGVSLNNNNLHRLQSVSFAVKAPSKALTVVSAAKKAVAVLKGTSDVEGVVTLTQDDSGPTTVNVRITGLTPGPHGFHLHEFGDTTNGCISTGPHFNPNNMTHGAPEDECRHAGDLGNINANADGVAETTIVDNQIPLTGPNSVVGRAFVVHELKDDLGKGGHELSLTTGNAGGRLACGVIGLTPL

[1] = molecular target: T5, CSD3 (Cu/ZnSOD3; peroxisomal copper/zinc SOD3) (Arabidopsis thaliana, UniProt Q9FK60); test: NBT-formazan SOD assay (xanthine/xanthine oxidase); conditions: superoxide generated by xanthine oxidase; 570 nm
T5 sequence (Q9FK60 1-164): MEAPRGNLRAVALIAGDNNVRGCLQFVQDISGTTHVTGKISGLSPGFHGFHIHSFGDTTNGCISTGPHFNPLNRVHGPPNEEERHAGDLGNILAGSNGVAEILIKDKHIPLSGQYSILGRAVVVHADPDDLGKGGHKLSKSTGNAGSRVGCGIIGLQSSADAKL

[2] = molecular target: T6, MSD1 (MnSOD; manganese SOD1) (Arabidopsis thaliana, UniProt O81235); test: NBT-formazan SOD assay (xanthine/xanthine oxidase); conditions: superoxide generated by xanthine oxidase; 570 nm
T6 sequence (O81235 1-231): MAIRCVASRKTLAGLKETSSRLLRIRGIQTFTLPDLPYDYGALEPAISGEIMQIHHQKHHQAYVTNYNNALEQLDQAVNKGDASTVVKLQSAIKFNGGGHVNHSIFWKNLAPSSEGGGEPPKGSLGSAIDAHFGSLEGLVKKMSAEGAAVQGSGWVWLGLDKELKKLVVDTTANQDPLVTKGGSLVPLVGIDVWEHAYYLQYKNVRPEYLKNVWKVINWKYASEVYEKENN

[3] = molecular target: T7, FSD3 (FeSOD3; chloroplastic iron SOD3) (Arabidopsis thaliana, UniProt Q9FMX0); test: NBT-formazan SOD assay (xanthine/xanthine oxidase); conditions: superoxide generated by xanthine oxidase; 570 nm
T7 sequence (Q9FMX0 1-263 limits assumed): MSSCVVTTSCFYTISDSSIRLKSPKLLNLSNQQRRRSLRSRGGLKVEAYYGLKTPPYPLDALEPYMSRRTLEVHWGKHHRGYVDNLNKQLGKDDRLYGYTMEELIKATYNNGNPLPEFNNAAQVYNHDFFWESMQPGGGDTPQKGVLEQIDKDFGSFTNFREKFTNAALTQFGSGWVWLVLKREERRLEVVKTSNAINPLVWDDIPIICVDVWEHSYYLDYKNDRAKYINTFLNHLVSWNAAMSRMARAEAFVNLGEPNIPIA

[4] = molecular target: T8, MSD1 (MnSOD; manganese SOD1) (Arabidopsis thaliana, UniProt O81235, Y63F); test: SOD activity after peroxynitrite treatment; conditions: covalent (tyrosine nitration); 20 min, RT, dark; potassium phosphate pH 8.0
T8 sequence (O81235 1-231 Y63F): T6 sequence (O81235 1-231) with Y63F

[5] = molecular target: T5, CSD3 (Cu/ZnSOD3; peroxisomal copper/zinc SOD3); test: SOD activity after peroxynitrite treatment (cytochrome c reduction); conditions: covalent (tyrosine nitration, Tyr115); 20 min, RT, dark; potassium phosphate pH 8.0
[6] = molecular target: T6, MSD1 (MnSOD; manganese SOD1); test: as above; conditions: covalent (tyrosine nitration, mainly Tyr63); 20 min, RT, dark; potassium phosphate pH 8.0
[7] = molecular target: T7, FSD3 (FeSOD3; chloroplastic iron SOD3); test: as above; conditions: covalent (tyrosine nitration); 20 min, RT, dark; potassium phosphate pH 8.0

| SMILES | NBT-formazan SOD assay (xanthine/xanthine oxidase) (CSD1 (Cu/ZnSOD1)) | NBT-formazan SOD assay (xanthine/xanthine oxidase) (FSD2) | NBT-formazan SOD assay (xanthine/xanthine oxidase) (FSD1) | NBT-formazan SOD assay (xanthine/xanthine oxidase) (CSD2 (Cu/ZnSOD2)) | NBT-formazan SOD assay (xanthine/xanthine oxidase) [1] | NBT-formazan SOD assay (xanthine/xanthine oxidase) [2] | NBT-formazan SOD assay (xanthine/xanthine oxidase) [3] | % inhibition at 500 μM [4] [%] | % remaining activity at 500 μM [5] [%] | % inhibition at 500 μM [6] | % remaining activity at 500 μM [7] [%] |
| --- | --- | --- | --- | --- | --- | --- | --- | --- | --- | --- | --- |
| [O]O [superoxide] | The activity of the purified, recombinant SODs was determined using the nitroblue tetrazolium (NBT)–formazan method | The activity of the purified, recombinant SODs was determined using the nitroblue tetrazolium (NBT)–formazan method | The activity of the purified, recombinant SODs was determined using the nitroblue tetrazolium (NBT)–formazan method | The activity of the purified, recombinant SODs was determined using the nitroblue tetrazolium (NBT)–formazan method | The activity of the purified, recombinant SODs was determined using the nitroblue tetrazolium (NBT)–formazan method | The activity of the purified, recombinant SODs was determined using the nitroblue tetrazolium (NBT)–formazan method | The activity of the purified, recombinant SODs was determined using the nitroblue tetrazolium (NBT)–formazan method | – | – | – | – |
| O=NOO [peroxynitrite] | – | – | – | – | – | – | – | 30 | 65 | ~ 90% | 65 |
